The record followed here is patent US20250042881A1, “CCR6 RECEPTOR MODULATORS” (Idorsia Pharmaceuticals Ltd, priority 2021, published 2025).

The target of this assay is T1, human CCR6 (Homo sapiens, UniProt P51684).
T1 construct: expressed in transfected cells; host or cells: HEK-293
T1 sequence (P51684 1-374): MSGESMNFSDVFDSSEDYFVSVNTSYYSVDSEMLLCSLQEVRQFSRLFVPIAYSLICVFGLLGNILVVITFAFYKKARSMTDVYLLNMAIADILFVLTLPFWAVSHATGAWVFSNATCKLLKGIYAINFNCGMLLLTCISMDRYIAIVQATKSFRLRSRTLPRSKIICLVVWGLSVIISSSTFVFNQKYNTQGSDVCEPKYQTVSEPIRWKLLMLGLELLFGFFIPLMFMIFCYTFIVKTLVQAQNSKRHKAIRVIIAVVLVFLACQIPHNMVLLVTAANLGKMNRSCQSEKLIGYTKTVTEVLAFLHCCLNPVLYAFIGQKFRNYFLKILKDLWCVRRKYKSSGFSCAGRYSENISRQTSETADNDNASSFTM
Briefly: FLIPR assay: inhibition of CCL20-induced calcium signal in HEK-293 cells expressing human CCR6. It is filed as cell-based. Particulars: engineered HEK-293 cells expressing human CCR6; agonist CCL20 10 nM; 30 min preincubation; Fluo-8-AM; mean values if determined several times. As to the method:
FLIPR assay: The bioactivity of compounds is tested in a fluorometric imaging plate reader (FLIPR: Molecular Devices) using engineered HEK-293 cells expressing the human CCR6 (GenBank: AY242126). Frozen cells are plated on Poly-L-Lysine precoated 384-well plates 2 days prior to bioassay in DMEM medium supplemented with 10% FCS and 1% Penicillin-Streptomycin. At the day of bioassay, cell supernatant is discarded and cells are dye loaded for 30 minutes at room temperature in the dark with Fluo-8-AM (Focus Biomolecules) in Hanks Balanced Salt Solution (Gibco), buffered with 20 mM Hepes at pH 6.75 and supplemented with 0.05% BSA. This buffer, but lacking the dye, is also used for washing and compound dilution steps (assay buffer). Cells are washed free of excess dye with a wash-station (Biotek), leaving 40 microliter of assay buffer at the end. Cells were incubated for 15 minutes at room temperature in the dark, before adding compounds. Stock solutions of test compounds are made up at a concentration of 10 mM in DMSO, and serially diluted first in DMSO and then transferred in assay buffer to concentrations required for inhibition dose response curves. After a 45 minute incubation period in assay buffer at room temperature, 10 microliters of each compound dilution are transferred from a compound plate to the plate containing the recombinant cells in the FLIPR instrument according to the manufacturer's instructions. After cells and compounds were preincubated for 30 minutes at room temperature in the dark, 10 microliter agonist CCL20 (Peprotech) at a final concentration of 10 nM is added, again using the FLIPR instrument. Changes in fluorescence are monitored before and after addition of the test compounds and agonist. Emission peak values above base level after CCL20 addition are exported after base line subtraction. The calculated IC50 values may fluctuate depending on the daily assay performance. Fluctuations of this kind are known to those skilled in the art. In the case where IC50 values have been determined several times for the same compound, mean values are given.
Broadly, the IC50 is the point on the concentration scale where inhibition reaches its midpoint. On to `CC(C)c1ccc([C@](O)(c2cncc(-c3nc(C4CCOCC4)n(C(C)C)n3)c2)C2(C)CN(C)C2)cc1` [Example 19, (R)-(1,3-Dimethyl-azetidin-3-yl)-(4-isopropyl-phenyl)-{5-[1-isopropyl-5-(tetrahydro-pyran-4-yl)-1H-[1,2,4]triazol-3-yl]-pyridin-3-yl}-methanol], for which the IC50 was 94.8 nM. The result for `CN1CC(C)([C@](O)(c2ccc(Br)cc2)c2cncc(-c3nc(C4CCOCC4)n(C4CC4)n3)c2)C1` [Example 1, (R)-(4-Bromo-phenyl)-{5-[1-cyclopropyl-5-(tetrahydro-pyran-4-yl)-1H-[1,2,4]triazol-3-yl]-pyridin-3-yl}-(1,3-dimethyl-azetidin-3-yl)-methanol] reads 1050 nM. For `Cc1ncc([C@@](O)(c2ccc(C(C)C)cc2)C2(C)CN(C)C2)cc1-c1nc([C@H]2CC[C@H](O)CC2)n(C2CC2)n1` [Example 40, 4-(2-Cyclopropyl-5-{5-[(R)-(1,3-dimethyl-azetidin-3-yl)-hydroxy-(4-isopropyl-phenyl)-methyl]-2-methyl-pyridin-3-yl}-2H-[1,2,4]triazol-3-yl)-trans-cyclohexanol], the IC50 was determined as 202 nM. In the case of `CC(C)c1ccc([C@](O)(c2cncc(-c3nc(C4CCOCC4)n(CC(C)(F)F)n3)c2)C2(C)CN(C)C2)cc1` [Example 22, (R)-{5-[1-(2,2-Difluoro-propyl)-5-(tetrahydro-pyran-4-yl)-1H-[1,2,4]triazol-3-yl]-pyridin-3-yl}-(1,3-dimethyl-azetidin-3-yl)-(4-isopropyl-phenyl)-methanol], the IC50 worked out at 81.6 nM. For `CC(=O)N1CCC(c2nc(-c3cncc([C@@](O)(c4ccc(C(C)C)cc4)C4(C)CN(C)C4)c3)nn2C(C)C)CC1` [Example 33, 1-[4-(5-{5-[(R)-(1,3-Dimethyl-azetidin-3-yl)-hydroxy-(4-isopropyl-phenyl)-methyl]-pyridin-3-yl}-2-isopropyl-2H-[1,2,4]triazol-3-yl)-piperidin-1-yl]-ethanone] the value was 182 nM; for `CC(C)c1ccc([C@](O)(c2cncc(-c3nc(C4CCN(C(=O)CO)CC4)n(C(C)C)n3)c2)C2(C)CN(C)C2)cc1` [Example 44, 1-[4-(5-{5-[(R)-(1,3-Dimethyl-azetidin-3-yl)-hydroxy-(4-isopropyl-phenyl)-methyl]-pyridin-3-yl}-2-isopropyl-2H-[1,2,4]triazol-3-yl)-piperidin-1-yl]-2-hydroxy-ethanone], 199 nM.

On to `CC(C)c1ccc([C@](O)(c2cncc(-c3nc(C4CCOCC4)n(C4CCC4)n3)c2)C2(C)CN(C)C2)cc1` [Example 23, (R)-{5-[1-Cyclobutyl-5-(tetrahydro-pyran-4-yl)-1H-[1,2,4]triazol-3-yl]-pyridin-3-yl}-(1,3-dimethyl-azetidin-3-yl)-(4-isopropyl-phenyl)-methanol], for which the IC50 is 57.8 nM. In the case of `CN1CC(C)([C@](O)(c2ccc(C3CC3)cc2)c2cncc(-c3nc(C4CCOCC4)n(C4CC4)n3)c2)C1` [Example 25, (R)-(4-Cyclopropyl-phenyl)-{5-[1-cyclopropyl-5-(tetrahydro-pyran-4-yl)-1H-[1,2,4]triazol-3-yl]-pyridin-3-yl}-(1,3-dimethyl-azetidin-3-yl)-methanol], the IC50 stood at 163 nM. The result for `CC(C)c1ccc([C@](O)(c2cncc(-c3nc(C45CC(CO)(C4)C5)n(C(C)C)n3)c2)C2(C)CN(C)C2)cc1` [Example 29, (R)-(1,3-Dimethyl-azetidin-3-yl)-{5-[5-(3-hydroxymethyl-bicyclo[1.1.1]pent-1-yl)-1-isopropyl-1H-[1,2,4]triazol-3-yl]-pyridin-3-yl}-(4-isopropyl-phenyl)-methanol] reads 78.7 nM; that for `CC(=O)N[C@H]1CC[C@H](c2nc(-c3cncc([C@@](O)(c4ccc(C(C)C)cc4)C4(C)CN(C)C4)c3)nn2C(C)C)CC1` [Example 43, N-[4-(5-{5-[(R)-(1,3-Dimethyl-azetidin-3-yl)-hydroxy-(4-isopropyl-phenyl)-methyl]-pyridin-3-yl}-2-isopropyl-2H-[1,2,4]triazol-3-yl)-trans-cyclohexyl]-acetamide], 115 nM. The result for `CC(C)c1ccc([C@](O)(c2cncc(-c3nc(C4CCOCC4)n(CCO)n3)c2)C2(C)CN(C)C2)cc1` [Example 17, 2-[3-{5-[(R)-(1,3-Dimethyl-azetidin-3-yl)-hydroxy-(4-isopropyl-phenyl)-methyl]-pyridin-3-yl}-5-(tetrahydro-pyran-4-yl)-[1,2,4]triazol-1-yl]-ethanol] reads 509 nM. The result for `CC(=O)NCCn1nc(-c2cncc([C@@](O)(c3ccc(C(C)C)cc3)C3(C)CN(C)C3)c2)nc1C1CCOCC1` [Example 50, N-{2-[3-{5-[(R)-(1,3-Dimethyl-azetidin-3-yl)-hydroxy-(4-isopropyl-phenyl)-methyl]-pyridin-3-yl}-5-(tetrahydro-pyran-4-yl)-[1,2,4]triazol-1-yl]-ethyl}-acetamide] reads 481 nM.

Regarding `CC(C)c1ccc([C@](O)(c2cncc(-c3nc(C(C)(C)O)n(C4CC4)n3)c2)C2(C)CNC2)cc1` [Example 37, 2-(2-Cyclopropyl-5-{5-[(R)-hydroxy-(4-isopropyl-phenyl)-(3-methyl-azetidin-3-yl)-methyl]-pyridin-3-yl}-2H-[1,2,4]triazol-3-yl)-propan-2-ol], the IC50 is 104 nM. The result for `CC(C)c1ccc([C@](O)(c2cncc(-c3nc(C4CCOCC4)n(C4CC4)n3)c2)C2(C)CN(C3CC3)C2)cc1` [Example 49, (R)-(1-Cyclopropyl-3-methyl-azetidin-3-yl)-{5-[1-cyclopropyl-5-(tetrahydro-pyran-4-yl)-1H-[1,2,4]triazol-3-yl]-pyridin-3-yl}-(4-isopropyl-phenyl)-methanol] reads 55.8 nM; that for `CC(C)c1ccc([C@](O)(c2cncc(-c3nc(C4CCOCC4)n(C4CCCC4)n3)c2)C2(C)CN(C)C2)cc1` [Example 20, (R)-{5-[1-Cyclopentyl-5-(tetrahydro-pyran-4-yl)-1H-[1,2,4]triazol-3-yl]-pyridin-3-yl}-(1,3-dimethyl-azetidin-3-yl)-(4-isopropyl-phenyl)-methanol], 37.3 nM; that for `CC(C)c1ccc([C@](O)(c2cncc(-c3nc(C(C)(C)O)n(C4CC4)n3)c2)C2(C)CN(C)C2)cc1` [Example 26, 2-(2-Cyclopropyl-5-{5-[(R)-(1,3-dimethyl-azetidin-3-yl)-hydroxy-(4-isopropyl-phenyl)-methyl]-pyridin-3-yl}-2H-[1,2,4]triazol-3-yl)-propan-2-ol], 46.4 nM. For `CN1CC(C)([C@](O)(c2ccc(C(C)(C)C)cc2)c2cncc(-c3nc(C4CCOCC4)n(C4CC4)n3)c2)C1` [Example 2, (R)-(4-tert-Butyl-phenyl)-{5-[1-cyclopropyl-5-(tetrahydro-pyran-4-yl)-1H-[1,2,4]triazol-3-yl]-pyridin-3-yl}-(1,3-dimethyl-azetidin-3-yl)-methanol] the value was 81.1 nM. For `CC(C)c1ccc([C@](O)(c2cncc(-c3nc(C4CCOCC4)n(C4CC4)n3)c2)C2(C)CN(C(C)C)C2)cc1` [Example 34, (R)-{5-[1-Cyclopropyl-5-(tetrahydro-pyran-4-yl)-1H-[1,2,4]triazol-3-yl]-pyridin-3-yl}-(1-isopropyl-3-methyl-azetidin-3-yl)-(4-isopropyl-phenyl)-methanol] the value was 63.8 nM; for `CC(C)c1ccc([C@](O)(c2cncc(-c3nc(C4CCOCC4)n(C)n3)c2)C2(C)CN(C)C2)cc1` [Example 16, (R)-(1,3-Dimethyl-azetidin-3-yl)-(4-isopropyl-phenyl)-{5-[1-methyl-5-(tetrahydro-pyran-4-yl)-1H-[1,2,4]triazol-3-yl]-pyridin-3-yl}-methanol], 221 nM. `CC(C)c1ccc([C@](O)(c2cncc(-c3nc(CC4(O)CCC4)n(C4CC4)n3)c2)C2(C)CN(C)C2)cc1` [Example 12, 1-(2-Cyclopropyl-5-{5-[(R)-(1,3-dimethyl-azetidin-3-yl)-hydroxy-(4-isopropyl-phenyl)-methyl]-pyridin-3-yl}-2H-[1,2,4]triazol-3-ylmethyl)-cyclobutanol]: the IC50 came out at 114 nM. For `CC(C)c1ccc([C@](O)(c2cncc(-c3nc(-c4cccnc4)n(C4CC4)n3)c2)C2(C)CN(C)C2)cc1` [Example 24, (R)-[5-(1-Cyclopropyl-5-pyridin-3-yl-1H-[1,2,4]triazol-3-yl)-pyridin-3-yl]-(1,3-dimethyl-azetidin-3-yl)-(4-isopropyl-phenyl)-methanol] the value was 50.1 nM.
